Results: PubChem BioAssay (NCI)
Where “and” joins values, the source holds several entries; their conditions need not be identical. Equal entries are not always repeated.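 Results reflect a 48-hour exposure of cells in 96-well plates to compound at five concentrations. GI50 marks 50% less growth. The concentration for full growth arrest is given as TGI.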

Legend:
Test in all cases: growth of human tumour cells (NCI), 48 h
[1] = test system: HOP-62 NSCLC
[2] = test system: A498 renal
[3] = test system: CCRF-CEM leukemia
[4] = test system: M14 melanoma
[5] = test system: OVCAR-3 ovarian
[6] = test system: DU-145 prostate
[7] = test system: UACC-257 melanoma
[8] = test system: CAKI-1 renal
[9] = test system: SK-MEL-5 melanoma
[10] = test system: HCT-116 colon

Structure (SMILES) | GI50 [1] | TGI [1] | GI50 [2] | TGI [2] | GI50 [3] | TGI [3] | GI50 [4] | TGI [4] | GI50 [5] | TGI [5] | GI50 [6] | TGI [6] | GI50 [7] | TGI [7] | GI50 [8] | TGI [8] | GI50 [9] | TGI [9] | GI50 [10] | TGI [10]
COc1ccc(-c2nc(-c3ccccn3)c(-c3ccccn3)n2CC(C)C)cc1OC1CCCC1 | 15.3 µM | > 165 µM | 16.5 µM | 82.7 µM | 7.54 µM | 59.8 µM | 22.7 µM | 114 µM | 30.3 µM | 114 µM | 23.3 µM | > 165 µM | 26.2 µM | 95.3 µM | 7.44 µM | 90.2 µM | 11.4 µM | 38.4 µM | 7.35 µM | > 165 µM
CC#CC#C/C=C1\C=CC2(OC=CC2OC(C)=O)O1 (configuration not stated) | – | > 100 µM | – | > 100 µM | – | 40.3 µM and 72.9 µM | – | > 100 µM and 37.9 µM | – | 74.4 µM | – | 37.7 µM | 30.5 µM and 15 µM | > 100 µM and 33.6 µM | – | 31.2 µM | – | 36.8 µM | 39.8 µM and 17.3 µM | > 100 µM and 33.1 µM
COC1C(CO)OC(n2c3c(Cl)cccc3c3c4c(c5c6cccc(Cl)c6[nH]c5c32)C(=O)NC4=O)C(O)C1O (configuration not stated) | – | 6.63 µM | – | 0.688 µM | – | > 100 µM | – | 10.7 µM | – | 6.67 µM | – | 3.29 µM | – | 1.75 µM | – | 0.565 µM | – | 0.321 µM | – | 0.781 µM
COc1ccc(C2=N[C@@H](c3ccc(Cl)cc3)[C@@H](c3ccc(Cl)cc3)N2C(=O)N2CCNC(=O)C2)c(OC(C)C)c1 | 16.5 µM and 15 µM and 16.1 µM | 31.1 µM and 30.5 µM and 33.3 µM | 12.6 µM and 6.1 µM and 9.23 µM | 25.6 µM and 21.9 µM and 24.1 µM | 14.7 µM and 16.8 µM and 18.4 µM | 35.4 µM and 42.7 µM and 50 µM | 14.1 µM and 14.9 µM and 16.3 µM | 28.4 µM and 32 µM and 33.2 µM | 14 µM and 13.1 µM and 13.7 µM | 27.2 µM and 26 µM and 26.8 µM | 15.2 µM and 15.8 µM and 16.6 µM | 28.7 µM and 29.3 µM and 30.3 µM | 13.2 µM and 4.26 µM and 3.98 µM | 26.5 µM and 19.3 µM and 18.3 µM | 11.7 µM and 1.63 µM and 2.35 µM | 24.7 µM and 12.9 µM and 14.5 µM | 14.1 µM and 5.35 µM and 6.56 µM | 27.2 µM and 17.7 µM and 19.6 µM | 12.4 µM and 3.82 µM and 3.53 µM | 25.4 µM and 18.4 µM and 18.7 µM
COc1ccc(C(=O)/C=C/c2cc(-c3ccc4c(c3)OCO4)n[nH]2)cc1OC | 2.08 µM | 5.6 µM | 1.55 µM | 4.23 µM | 2.52 µM | 9.58 µM | 6.36 µM | 21.4 µM | 2.02 µM | 4.61 µM | 1.87 µM | 4.27 µM | 7.06 µM | 22.1 µM | 1.9 µM | 4.33 µM | 6.74 µM | 19.9 µM | 2.43 µM | 7.99 µM
O=C1/C(=C/c2ccc(Cl)cc2)CN(C(=O)CCN2CCC(=NO)CC2)C/C1=C\c1ccc(Cl)cc1 | 0.894 µM | 2.41 µM | 1.15 µM | 2.41 µM | 0.317 µM | > 22.3 µM | 0.754 µM | 2.3 µM | 0.628 µM | 1.78 µM | 1.28 µM | 2.6 µM | 1.67 µM | 3.43 µM | 0.649 µM | 1.85 µM | 1.66 µM | 3.1 µM | 0.245 µM | 0.654 µM
O=C(c1ccco1)c1nc2cc(C(F)(F)F)ccc2[n+]([O-])c1C(F)(F)F | 71.7 µM | > 100 µM | 39.3 µM | > 100 µM | 60.2 µM | > 100 µM | 43.8 µM | > 100 µM | 30.5 µM | > 100 µM | 61.7 µM | > 100 µM | 69.8 µM | > 100 µM | > 100 µM | > 100 µM | 33.3 µM | > 100 µM | 38.5 µM | > 100 µM
CCCCCCCCCCCCCCCC(=O)OCC1OC(OC)C(NC(=O)N(CCCl)N=O)C(O)C1O (configuration not stated) | – | 31.9 µM | – | 61.3 µM | – | 53.7 µM | – | 36.4 µM | – | 48.6 µM | – | 92.6 µM | – | 47.8 µM | – | 45.4 µM | – | 59.9 µM | – | 26.8 µM
Oc1ccc(Oc2cnc3cc(Cl)ccc3n2)cc1 | > 100 µM | > 100 µM | 25.4 µM | > 100 µM | 1.62 µM | 79.9 µM | 46.5 µM | > 100 µM | 15.8 µM | 38.4 µM | 42.4 µM | > 100 µM | 65.7 µM | > 100 µM | 21.8 µM | 68.2 µM | 28.6 µM | > 100 µM | 37.1 µM | > 100 µM
CN(C)c1ccc(Nc2c3ccccc3nc3cc(NC(=O)CCN4CCCC4)ccc23)cc1 | 0.235 µM | 1.56 µM | 0.442 µM | 1.98 µM | 0.0778 µM | 1.38 µM | 0.692 µM | 2 µM | 0.81 µM | 2.25 µM | 0.155 µM | 1.19 µM | 1.65 µM | 3.51 µM | 0.594 µM | 2.19 µM | 1.04 µM | 2.32 µM | 0.346 µM | 1.61 µM
